Data: patent publication US6462055B2, “Alpha-methylbenzyl-containing thiourea inhibitors of herpes viruses containing a phenylenediamine group” (Wyeth, priority 1998, dated 2002)
Converted amounts (≈) assume the structure as drawn.

Tested on: VZV strain Ellen
Assay: VZV Antiviral (ELISA) Assay in human foreskin fibroblast cells
Format: cell-based, varicella-zoster virus
Settings: not given
Procedure, shortened: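 Antiviral IC50 is derived by comparing fluorescence with and without compound after a three-day culture of VZV-infected plus uninfected foreskin fibroblasts. Replication is quantified by ELISA against glycoprotein II, using a β-galactosidase secondary and methyl umbelliferyl-β-D-galactoside.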

Row | Structure (SMILES) | IC50 (ug/ml) VZV
1 | CS(=O)(=O)c1ccc(NC(=S)Nc2ccc(NC(=O)c3c(F)cccc3F)cc2)cc1Cl [Example 393] | >10 µg/mL
2 | Cc1ccc(NC(=S)Nc2ccc(NC(=O)c3ccccc3F)c(C)c2)cc1Cl [Example 395] | >10 µg/mL
3 | CCOC(=O)Nc1ccc(NC(=S)Nc2ccc(NC(=O)c3ccccc3F)cc2)cc1Cl [Example 399] | >10 µg/mL
4 | Nc1ccc(NC(=S)Nc2ccc(NC(=O)c3ccccc3F)cc2)cc1Cl [Example 404] | >10 µg/mL
5 | O=C(CN1CCSCC1)Nc1ccc(NC(=S)Nc2ccc(NC(=O)c3ccccc3F)cc2)cc1Cl [Example 407] | 0.7 µg/mL (≈ 1.25 µM)
6 | CCN(CC)CC(=O)Nc1ccc(NC(=S)Nc2ccc(NC(=O)c3ccccc3F)cc2)cc1Cl [Example 414] | >15 µg/mL
7 | O=C(CN1CCCC1)Nc1ccc(NC(=S)Nc2ccc(NC(=O)c3ccccc3F)cc2)cc1Cl [Example 417] | >10 µg/mL
8 | O=C(CN1CCCCCC1)Nc1ccc(NC(=S)Nc2ccc(NC(=O)c3ccccc3F)cc2)cc1Cl [Example 423] | 0.9 µg/mL (≈ 1.62 µM)
9 | CC1CCCCN1CC(=O)Nc1ccc(NC(=S)Nc2ccc(NC(=O)c3ccccc3F)cc2)cc1Cl (stereo not shown) [Example 425] | >7.5 µg/mL
10 | O=C(Nc1ccc(NC(=S)Nc2cccc(C(F)(F)F)c2)cc1)c1ccccc1F [Example 433] | >10 µg/mL
11 | Nc1ccc(Cl)cc1NC(=S)Nc1ccc(NC(=O)c2ccccc2F)cc1 [Example 437] | 8 µg/mL (≈ 19.3 µM)
12 | Nc1cc(Cl)cc(NC(=S)Nc2ccc(NC(=O)c3ccccc3F)cc2)c1 [Example 442] | 8 µg/mL (≈ 19.3 µM)
13 | CC(O)c1cccc(NC(=S)Nc2ccc(NC(=O)c3ccccc3F)cc2)c1 (stereo not shown) [Example 448] | >10 µg/mL
14 | CC(C)c1cccc(NC(=S)Nc2ccc(NC(=O)c3ccccc3F)cc2)c1 [Example 452] | 1 µg/mL (≈ 2.45 µM)
15 | CN(C)c1cccc(NC(=S)Nc2ccc(NC(=O)c3ccccc3F)cc2)c1 [Example 454] | >10 µg/mL
16 | COc1cc(C)c(Cl)cc1NC(=S)Nc1ccc(NC(=O)c2ccccc2F)cc1Cl [Example 458] | >10 µg/mL
17 | Cc1ccc(NC(=S)Nc2ccc(NC(=O)c3ccccc3F)cc2Cl)cc1Cl [Example 459] | >10 µg/mL
18 | CSc1ccc(NC(=S)Nc2ccc(NC(=O)c3ccccc3F)cc2Cl)cc1Cl [Example 460] | >10 µg/mL
19 | N#Cc1cccc(NC(=S)Nc2ccc(NC(=O)c3ccccc3F)cc2)c1 [Example 461] | >10 µg/mL

Same assay, conditions: 10 ug/ml

Row | Structure (SMILES) | % inhibition 10 ug/ml VZV
20 | CS(=O)(=O)c1ccc(NC(=S)Nc2ccc(NC(=O)c3c(F)cccc3F)cc2)cc1Cl [Example 393] | 62%
21 | Cc1ccc(NC(=S)Nc2ccc(NC(=O)c3ccccc3F)c(C)c2)cc1Cl [Example 395] | 64%
22 | CCOC(=O)Nc1ccc(NC(=S)Nc2ccc(NC(=O)c3ccccc3F)cc2)cc1Cl [Example 399] | 59%
23 | Nc1ccc(NC(=S)Nc2ccc(NC(=O)c3ccccc3F)cc2)cc1Cl [Example 404] | 15%
24 | O=C(CN1CCSCC1)Nc1ccc(NC(=S)Nc2ccc(NC(=O)c3ccccc3F)cc2)cc1Cl [Example 407] | 87%
25 | CCN(CC)CC(=O)Nc1ccc(NC(=S)Nc2ccc(NC(=O)c3ccccc3F)cc2)cc1Cl [Example 414] | 70%
26 | O=C(CN1CCCC1)Nc1ccc(NC(=S)Nc2ccc(NC(=O)c3ccccc3F)cc2)cc1Cl [Example 417] | 15%
27 | O=C(CN1CCCCCC1)Nc1ccc(NC(=S)Nc2ccc(NC(=O)c3ccccc3F)cc2)cc1Cl [Example 423] | 87%
28 | CC1CCCCN1CC(=O)Nc1ccc(NC(=S)Nc2ccc(NC(=O)c3ccccc3F)cc2)cc1Cl (stereo not shown) [Example 425] | 103%
29 | O=C(Nc1ccc(NC(=S)Nc2cccc(C(F)(F)F)c2)cc1)c1ccccc1F [Example 433] | 0%
30 | Nc1ccc(Cl)cc1NC(=S)Nc1ccc(NC(=O)c2ccccc2F)cc1 [Example 437] | 0%
31 | Nc1cc(Cl)cc(NC(=S)Nc2ccc(NC(=O)c3ccccc3F)cc2)c1 [Example 442] | 81%
32 | CC(O)c1cccc(NC(=S)Nc2ccc(NC(=O)c3ccccc3F)cc2)c1 (stereo not shown) [Example 448] | 0%
33 | CC(C)c1cccc(NC(=S)Nc2ccc(NC(=O)c3ccccc3F)cc2)c1 [Example 452] | 75%
34 | CN(C)c1cccc(NC(=S)Nc2ccc(NC(=O)c3ccccc3F)cc2)c1 [Example 454] | 55%
35 | COc1cc(C)c(Cl)cc1NC(=S)Nc1ccc(NC(=O)c2ccccc2F)cc1Cl [Example 458] | 25%
36 | Cc1ccc(NC(=S)Nc2ccc(NC(=O)c3ccccc3F)cc2Cl)cc1Cl [Example 459] | 25%
37 | CSc1ccc(NC(=S)Nc2ccc(NC(=O)c3ccccc3F)cc2Cl)cc1Cl [Example 460] | 50%
38 | N#Cc1cccc(NC(=S)Nc2ccc(NC(=O)c3ccccc3F)cc2)c1 [Example 461] | 33%

Tested on: HCMV recombinant mutant virus (RV145)
Assay: microbe, parasite or virus in culture
Format: cell-based, human cytomegalovirus
Settings: HCMV
Procedure, shortened: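 Human foreskin fibroblasts infected with HCMV RV145 carrying a viral-promoter-driven beta-glucuronidase gene, in presence of compound. At 96 h post-infection, lysates assayed for beta-glucuronidase with colorimetric or fluorogenic glucuronide substrate as replication read-out. IC50 estimated from varying inhibitor amounts.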

Row | Structure (SMILES) | IC50 ug/ml HCMV
39 | CS(=O)(=O)c1ccc(NC(=S)Nc2ccc(NC(=O)c3c(F)cccc3F)cc2)cc1Cl [Example 393] | 0.5 µg/mL (≈ 1.01 µM)
40 | Cc1ccc(NC(=S)Nc2ccc(NC(=O)c3ccccc3F)c(C)c2)cc1Cl [Example 395] | 3 µg/mL (≈ 7.01 µM)
41 | CCOC(=O)Nc1ccc(NC(=S)Nc2ccc(NC(=O)c3ccccc3F)cc2)cc1Cl [Example 399] | 1.5 µg/mL (≈ 3.08 µM)
42 | Nc1ccc(NC(=S)Nc2ccc(NC(=O)c3ccccc3F)cc2)cc1Cl [Example 404] | 8 µg/mL (≈ 19.3 µM)
43 | O=C(CN1CCSCC1)Nc1ccc(NC(=S)Nc2ccc(NC(=O)c3ccccc3F)cc2)cc1Cl [Example 407] | >10 µg/mL
44 | CCN(CC)CC(=O)Nc1ccc(NC(=S)Nc2ccc(NC(=O)c3ccccc3F)cc2)cc1Cl [Example 414] | >10 µg/mL
45 | O=C(CN1CCCC1)Nc1ccc(NC(=S)Nc2ccc(NC(=O)c3ccccc3F)cc2)cc1Cl [Example 417] | >10 µg/mL
46 | O=C(CN1CCCCCC1)Nc1ccc(NC(=S)Nc2ccc(NC(=O)c3ccccc3F)cc2)cc1Cl [Example 423] | 1 µg/mL (≈ 1.8 µM)
47 | CC1CCCCN1CC(=O)Nc1ccc(NC(=S)Nc2ccc(NC(=O)c3ccccc3F)cc2)cc1Cl (stereo not shown) [Example 425] | 0.5 µg/mL (≈ 0.902 µM)
48 | O=C(Nc1ccc(NC(=S)Nc2cccc(C(F)(F)F)c2)cc1)c1ccccc1F [Example 433] | >10 µg/mL
49 | Nc1ccc(Cl)cc1NC(=S)Nc1ccc(NC(=O)c2ccccc2F)cc1 [Example 437] | >10 µg/mL
50 | Nc1cc(Cl)cc(NC(=S)Nc2ccc(NC(=O)c3ccccc3F)cc2)c1 [Example 442] | 2 µg/mL (≈ 4.82 µM)
51 | CC(O)c1cccc(NC(=S)Nc2ccc(NC(=O)c3ccccc3F)cc2)c1 (stereo not shown) [Example 448] | 9 µg/mL (≈ 22 µM)
52 | CC(C)c1cccc(NC(=S)Nc2ccc(NC(=O)c3ccccc3F)cc2)c1 [Example 452] | 2 µg/mL (≈ 4.91 µM)
53 | CN(C)c1cccc(NC(=S)Nc2ccc(NC(=O)c3ccccc3F)cc2)c1 [Example 454] | 4 µg/mL (≈ 9.79 µM)
54 | COc1cc(C)c(Cl)cc1NC(=S)Nc1ccc(NC(=O)c2ccccc2F)cc1Cl [Example 458] | >10 µg/mL
55 | Cc1ccc(NC(=S)Nc2ccc(NC(=O)c3ccccc3F)cc2Cl)cc1Cl [Example 459] | >10 µg/mL
56 | CSc1ccc(NC(=S)Nc2ccc(NC(=O)c3ccccc3F)cc2Cl)cc1Cl [Example 460] | 2 µg/mL (≈ 4.16 µM)
57 | N#Cc1cccc(NC(=S)Nc2ccc(NC(=O)c3ccccc3F)cc2)c1 [Example 461] | >10 µg/mL

Tested on: HSV-1
Assay: HSV Antiviral (ELISA) Assay in Vero cells
Format: cell-based, herpes simplex virus type 1
Settings: HSV-1, Vero cells
Procedure, shortened: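 Viral replication was quantified by cell-fixed ELISA for HSV glycoprotein D, using a β-galactosidase reporter and fluorogenic umbelliferyl substrate, about 24 h after HSV-1 infection (MOI 0.006) of Vero cells. Compounds, at several concentrations, were added 30 min pre-infection. IC50 was derived from fluorescence relative to the compound-free signal.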

Row | Structure (SMILES) | IC50 (ug/ml) HSV
58 | CS(=O)(=O)c1ccc(NC(=S)Nc2ccc(NC(=O)c3c(F)cccc3F)cc2)cc1Cl [Example 393] | >10 µg/mL
59 | Cc1ccc(NC(=S)Nc2ccc(NC(=O)c3ccccc3F)c(C)c2)cc1Cl [Example 395] | 0.2 µg/mL (≈ 0.467 µM)
60 | CCOC(=O)Nc1ccc(NC(=S)Nc2ccc(NC(=O)c3ccccc3F)cc2)cc1Cl [Example 399] | >10 µg/mL
61 | Nc1ccc(NC(=S)Nc2ccc(NC(=O)c3ccccc3F)cc2)cc1Cl [Example 404] | 0.4 µg/mL (≈ 0.964 µM)
62 | O=C(CN1CCSCC1)Nc1ccc(NC(=S)Nc2ccc(NC(=O)c3ccccc3F)cc2)cc1Cl [Example 407] | 4 µg/mL (≈ 7.17 µM)
63 | CCN(CC)CC(=O)Nc1ccc(NC(=S)Nc2ccc(NC(=O)c3ccccc3F)cc2)cc1Cl [Example 414] | 6 µg/mL (≈ 11.4 µM)
64 | O=C(CN1CCCC1)Nc1ccc(NC(=S)Nc2ccc(NC(=O)c3ccccc3F)cc2)cc1Cl [Example 417] | 6 µg/mL (≈ 11.4 µM)
65 | O=C(CN1CCCCCC1)Nc1ccc(NC(=S)Nc2ccc(NC(=O)c3ccccc3F)cc2)cc1Cl [Example 423] | 4 µg/mL (≈ 7.22 µM)
66 | CC1CCCCN1CC(=O)Nc1ccc(NC(=S)Nc2ccc(NC(=O)c3ccccc3F)cc2)cc1Cl (stereo not shown) [Example 425] | 3 µg/mL (≈ 5.41 µM)
67 | O=C(Nc1ccc(NC(=S)Nc2cccc(C(F)(F)F)c2)cc1)c1ccccc1F [Example 433] | >10 µg/mL
68 | Nc1ccc(Cl)cc1NC(=S)Nc1ccc(NC(=O)c2ccccc2F)cc1 [Example 437] | 0.05 µg/mL (≈ 0.121 µM)
69 | Nc1cc(Cl)cc(NC(=S)Nc2ccc(NC(=O)c3ccccc3F)cc2)c1 [Example 442] | 1 µg/mL (≈ 2.41 µM)
70 | CC(O)c1cccc(NC(=S)Nc2ccc(NC(=O)c3ccccc3F)cc2)c1 (stereo not shown) [Example 448] | >10 µg/mL
71 | CC(C)c1cccc(NC(=S)Nc2ccc(NC(=O)c3ccccc3F)cc2)c1 [Example 452] | 4 µg/mL (≈ 9.82 µM)
72 | CN(C)c1cccc(NC(=S)Nc2ccc(NC(=O)c3ccccc3F)cc2)c1 [Example 454] | 1.5 µg/mL (≈ 3.67 µM)
73 | COc1cc(C)c(Cl)cc1NC(=S)Nc1ccc(NC(=O)c2ccccc2F)cc1Cl [Example 458] | 0.06 µg/mL (≈ 0.125 µM)
74 | Cc1ccc(NC(=S)Nc2ccc(NC(=O)c3ccccc3F)cc2Cl)cc1Cl [Example 459] | 0.12 µg/mL (≈ 0.268 µM)
75 | CSc1ccc(NC(=S)Nc2ccc(NC(=O)c3ccccc3F)cc2Cl)cc1Cl [Example 460] | 0.09 µg/mL (≈ 0.187 µM)
76 | N#Cc1cccc(NC(=S)Nc2ccc(NC(=O)c3ccccc3F)cc2)c1 [Example 461] | >10 µg/mL
